Data from PMC7605328 (ACS Medicinal Chemistry Letters, 2020).

Columns and labels:
SARS-CoV-2 M^pro = SARS-CoV-2 M^pro (Severe acute respiratory syndrome coronavirus 2, UniProt P0DTD1); experiment: FRET-based kinetic assay of M^pro inhibition; type: biochemical
COVID-19 = conditions: cited from earlier work

SMILES: Cc1c(O)cccc1C(=O)N[C@@H](CSc1ccccc1)[C@H](O)CN1C[C@H]2CCCC[C@H]2C[C@H]1C(=O)NC(C)(C)C [nelfinavir]
- IC50 (SARS-CoV-2 M^pro): 250 to 600 µM

SMILES: CCC(CC)COC(=O)[C@H](C)N[P@](=O)(OC[C@H]1O[C@@](C#N)(c2ccc3c(N)ncnn23)[C@H](O)[C@@H]1O)Oc1ccccc1 [remdesivir]
- clinical benefit (COVID-19; adult patients hospitalized for severe COVID-19): no statistically significant clinical benefits
- time to clinical improvement (COVID-19; in comparison to the placebo-control group): faster time to clinical improvement

SMILES: Cc1cccc(C)c1OCC(=O)N[C@@H](Cc1ccccc1)[C@@H](O)C[C@H](Cc1ccccc1)NC(=O)[C@H](C(C)C)N1CCCNC1=O [lopinavir]
- benefits against COVID-19 in clinical trials (COVID-19; clinical trials, no reference given): neither lopinavir nor the lopinavir/ritonavir combination has thus far shown any significant benefits
